Results taken from patent US20190142974A1, “METHODS AND COMPOSITIONS FOR ATTENUATING ANTI-VIRAL TRANSFER VECTOR IGM RESPONSES” (Selecta Biosciences, Inc., priority 2017, published 2019).

System: AAV
Assay: Serum AAV IgG, ELISA
Format: in vivo, C57BL/6 female mice
Conditions: Example 12, FIG. 24B
Procedure: Same serum samples from Example 3 were also tested for AAV IgG measured by ELISA along the same lines as IgM with the exception of goat anti-mouse IgG specific-HRP being used.

C=CC(=O)N1CCC[C@@H](n2nc(-c3ccc(Oc4ccccc4)cc3)c3c(N)ncnc32)C1 [ibrutinib]
animals converting to AAV IgG-positive by d22: 10/10
